Reference: patent US10100030B2 (Kissei Pharmaceutical Co., Ltd., priority 2013, dated 2018)
Where two headings read alike, the source gives them in different places.

Columns and labels:
[1] = target: T1, CYP3A4 (Homo sapiens (Human), UniProt P08684); details: background literature; cited from earlier work
[2] = target: NK1 receptor (Meriones unguiculatus (Mongolian jird) (Gerbillus unguiculatus), UniProt Q5DUB1); experiment: Effect on GR73632-induced foot-tapping; assay type: in vivo; details: 0.3 mg/kg from the jugular vein, GR73632 after four hours, male gerbil
Description: (1) Effect on Foot-tapping
(§1) A male gerbil (Japan SLC) was anesthetized with isoflurane, and 0.3 mg/kg of a test compound was administered from the jugular vein. After four hours, GR73632 (5 pmol/5 μl), which is an NK1 receptor agonist, was administered into the cerebral ventricle at the part 1 mm lateral to and 4.5 mm below the bregma in the head, under anesthesia with isoflurane. After the administration, the gerbil was moved to an observation cage, and the foot-tapping period during five minutes after the recovery of the righting reflex was measured. The foot-tapping inhibition rate (%) of each test compound was calculated by the following equation. Foot-tapping inhibition rate (%)={1−(Foot-tapping period when test compound was administered)/(Foot-tapping period when solvent was administered)}×100 (2) Measurement of Drug Concentrations
(§2) In the table, Ex. No. means the Example number. Inhibition (%) is the foot-tapping inhibition rate, and Conc. (nM) is the drug concentration in the brain.

[3] = target: T2, human NK1 receptor (Homo sapiens (Human), UniProt P25103); experiment: Inhibitory effect on human NK1 receptor (substance P-induced increase in intracellular calcium concentration); assay type: cell-based; details: HEK-293T; substance P 1 μM, compound 0.1 μM; human NK1 receptor-expressing 293T cells; read-out: SPRR (Substance P-Response Remaining)
Description: Inhibitory Effect on Human NK1 Receptor
(1) Preparation of Human NK1 Receptor-expressing Cells
Human NK1 receptor-expressing cells were prepared by the same methods as those described in 2-3 and 2-4 of Test Example 1.
(2) Study on Inhibitory Effect on Increase in Intracellular Calcium Concentration
The human NK1 receptor-expressing cells were washed with 300 μL/well of a washing solution (20 mM HEPES/Hank's Balanced Salt Solution (HBSS) […]). A fluorescent calcium indicator (Fluo-4 Direct Calcium Assay Kit, Life Technologies, containing 0.42 mM probenecid and 0.1% bovine serum albumin, prepared according to the protocol of the product) was added to the wells at 150 μL/well, and the plate was incubated at 37° C. for 30 minutes in an incubator. Then, DMSO solutions of a test compound, which were prepared at an 80-time higher concentration using 100% dimethyl sulfoxide (DMSO), were added to the wells at 2.5 μL/well (final concentrations of 0.1, 1 and 10 μM), and the solutions were mixed. Then, the plate was further incubated at 37° C. for 30 minutes in an incubator. After 30 minutes, the intracellular calcium concentrations were measured immediately.
The intracellular calcium concentrations were each measured as a fluorescent signal using FDSS (registered trademark) 7000 (Hamamatsu Photonics). A substance P (Peptide Institute, Inc.) solution which was prepared at 0.4 μM or 4 μM using an assay buffer (20 mM HEPES/Hank's Balanced Salt Solution (HBSS) pH 7.3, containing 0.1% bovine serum albumin) was added automatically to each well at 50 μL/well (final concentration of 0.1 or 1 μM) 10 seconds after starting reading, and the fluorescent signal was measured up to 120 seconds.
The intracellular calcium concentration (%) of the cells to which a test compound was added was calculated by the equation below, where the fluorescent signal of the group to which the vehicle (DMSO) was added was regarded as 100%, and the fluorescent signal before the addition of substance P was regarded as 0%. Intracellular calcium concentration(%)=(Fluorescent signal of test compound addition group)/(Fluorescent signal of vehicle addition group)×100
The intracellular calcium concentration (%) calculated was regarded as the remaining agonist activity of substance P (Substance P-Response Remaining: SPRR). In the table, Ex. No. means the Example number. SPRR (%) is the value obtained when the concentration of substance P was 1 μM and the concentration of the compound was 0.1 μM.

[4] = target: T2, human NK1 receptor; experiment: Affinity for human NK1 receptor (125I-substance P receptor binding test); details: membrane fraction of human NK1 receptor-expressing 293T cells; read-out: IC50 (concentration required for 50% inhibition of 125I-substance P binding)
Description: Affinity for Human NK1 Receptor
(3) Measurement of Binding Affinity to Human NK1 Receptor
(3-1) Preparation of Membrane Fraction from Human NK1 Receptor-expressing Cells
Human NK1 receptor-expressing cells were prepared in a 175 cm^2 culture flask (Nippon Becton Dickinson). The formation of a complex of the human NK1 receptor expression plasmid and Lipofectamine 2000 was performed by calculating the culture area ratio and increasing the scale of the method described in the above 2-4 by the ratio. The human NK1 receptor-expressing cells were collected in a buffer solution for the membrane fraction preparation (50 mM Tris (Wako Pure Chemical). 120 mM sodium chloride (Wako Pure Chemical Industries), 5 mM potassium chloride (Wako Pure Chemical Industries), 1 mM ethylenediaminetetraacetic acid (Sigma), 0.002 mg/mL chymostatin (Peptide Institute), 0.04 mg/ bacitracin (Wako Pure Chemical Industries), 0.005 mg/mL phosphoramidon (Peptide Institute) and 0.5 mM phenylmethylsulfonyl fluoride (Wako Pure Chemical Industries), pH7.4) and centrifuged at 1,880 g for 10 minutes, and the cell sediment was suspended in the buffer solution for the membrane fraction preparation. After freezing and thawing the cells once, the cells were homogenized using a Dounce-type homogenizer (cooled on ice, 1000 rpm, 20 times). The homogenized cell suspension was centrifuged at 20,000 rpm for 10 minutes, and the supernatant was removed to obtain cell sediment. The cell sediment was suspended again in the buffer solution for the membrane fraction preparation and homogenized using a Dounce-type homogenizer (cooled on ice, 1000 rpm, 30 times). The cell suspension was centrifuged at 20,000 rpm for 10 minutes, and the supernatant was removed to obtain cell sediment. The same homogenization and centrifugation were repeated again, and final cell sediment was obtained. The final cell sediment was suspended in a buffer solution for the receptor binding test (50 mM Tris (Wako Pure Chemical Industries), 3 mM manganese chloride (Wako Pure Chemical Industries), 0.002 mg/mL chymostatin (Peptide Institute), 0.04 mg/bacitracin (Wako Pure Chemical Industries) and 0.02% bovine serum albumin (Sigma), pH 7.4), and the protein concentration was measured using BCA Protein Assay Kit (Pierce).
(3-2) Receptor Binding Test
The buffer solution for the receptor binding test was dispensed to the wells of a 96-well assay plate (Greiner) at 22.5 μL/well. DMSO solutions of a test compound, which were prepared at an 80-time higher concentration using 100% dimethyl sulfoxide (DMSO), were added to the wells at 2.5 μL/well (final concentrations of 1 nM to 100 nM), and the solutions were mixed. As a radiolabeled ligand, ^125I-substance P (Substance P, [^125I]Tyr^8-, PerkinElmer) was used. ^125I-substance P was diluted with the buffer solution for the receptor binding test to a concentration resulting in […] and added to the 96-well assay plate, and the solutions were mixed. The membrane fraction prepared from the human NK1 receptor-expressing cells was diluted with the buffer solution for the receptor binding test to a concentration resulting in 8 to 10 μg/well, suspended until the suspension became in such a homogenous state that the suspension could flow through as 27G injection needle smoothly and then added to the 96-well assay plate at 150 μL/well. Then, the plate was incubated at room temperature for 60 minutes while shaking the plate. The reaction solutions were suction-filtered. through a multiscreen 96-well filter plate (Millipore) which had been pre-treated with 0.3% polyethyleneimine, and the reaction was terminated by washing with a washing solution (50 mM Tris and 0.02% bovine serum albumin, pH 7.4) four times. The bottom of the microplate was dried at 60° C., and then 100 μL/well of MicroScint 20 (PerkinElmer) was dispensed to the wells. The top of the plate was sealed with TopSeal A (PerkinElmer), and the plate was shaken for 5 to 10 minutes. […]

[5] = Measurement of drug concentrations in the brain after foot-tapping test; assay type: in vivo; details: male; 0.3 mg/kg iv, after foot-tapping was finished, gerbil brain; read-out: Conc. (drug concentration in the brain)
Description: as §1
After foot-tapping was finished, laparotomy was performed immediately under anesthesia with ether, and a blood sample was taken from the abdominal vena cava. At the same time, the brain was extracted. Through a quantitative analysis using liquid chromatography-mass spectrometry (LC/MS), the concentrations of the test compound in the plasma and the brain were measured.
as §2

[6] = target: T1, CYP3A4; experiment: Inhibitory effect on CYP3A4 (Luciferin-IPA)
Description: Enzyme reaction was performed by incubating in a potassium phosphate buffer solution (pH 7.4) containing 1 nM to 20 μM test compound, 3.2 mM magnesium chloride, 0.2 pmol human CYP3A4 (BD Biosciences), 0.5 mM reduced nicotinamide adenine dinucleotide phosphate (NADPH) and 3 μM Luciferin-IPA (Promega) at 37° C. for 10 minutes. The volume of the reaction solution was 50 μL/well. The 30-minute pre-incubation group was incubated at 37° C. for 30 minutes before adding the substrate, the Luciferin-IPA solution (12.5 μL/well). At the end of the enzyme reaction, 50 μL/well of a Luciferin detection reagent (Promega) was added to the wells, and the plate was left at room temperature for 20 minutes. Then, the emission intensities were measured with Infinite M1000 (TECAN). The enzyme activities (%) relative to the value of the group to which the test compound was not added were calculated.

[7] = read-out: IC50 (CYP3A4 inhibition), 30-minute pre-incubation group

T1 sequence (P08684 whole entry): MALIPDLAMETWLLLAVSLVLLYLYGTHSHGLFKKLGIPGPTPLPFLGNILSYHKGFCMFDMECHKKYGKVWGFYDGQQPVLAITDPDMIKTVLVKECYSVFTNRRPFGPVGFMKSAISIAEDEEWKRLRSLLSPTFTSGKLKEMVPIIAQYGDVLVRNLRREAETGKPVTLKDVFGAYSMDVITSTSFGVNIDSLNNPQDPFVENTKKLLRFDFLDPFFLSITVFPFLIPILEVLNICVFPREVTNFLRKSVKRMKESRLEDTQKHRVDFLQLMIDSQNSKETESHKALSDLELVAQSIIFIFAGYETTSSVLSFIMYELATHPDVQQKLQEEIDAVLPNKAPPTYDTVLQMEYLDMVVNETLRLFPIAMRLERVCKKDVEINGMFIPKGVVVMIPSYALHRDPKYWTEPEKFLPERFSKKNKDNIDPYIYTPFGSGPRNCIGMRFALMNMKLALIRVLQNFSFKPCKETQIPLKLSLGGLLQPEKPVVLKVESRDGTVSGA
T2 sequence (P25103 whole entry): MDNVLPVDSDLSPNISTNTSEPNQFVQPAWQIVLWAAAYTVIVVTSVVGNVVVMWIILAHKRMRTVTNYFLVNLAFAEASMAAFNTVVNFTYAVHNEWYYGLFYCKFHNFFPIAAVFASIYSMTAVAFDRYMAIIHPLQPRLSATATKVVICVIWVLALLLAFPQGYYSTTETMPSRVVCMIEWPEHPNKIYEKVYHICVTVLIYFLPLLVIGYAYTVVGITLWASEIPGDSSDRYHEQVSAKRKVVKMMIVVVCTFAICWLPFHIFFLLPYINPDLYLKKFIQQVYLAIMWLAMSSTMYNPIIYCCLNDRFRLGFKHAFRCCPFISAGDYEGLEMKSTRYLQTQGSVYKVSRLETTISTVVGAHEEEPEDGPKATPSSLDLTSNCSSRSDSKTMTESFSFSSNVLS
Chain of NK1 receptor (Q5DUB1 whole entry): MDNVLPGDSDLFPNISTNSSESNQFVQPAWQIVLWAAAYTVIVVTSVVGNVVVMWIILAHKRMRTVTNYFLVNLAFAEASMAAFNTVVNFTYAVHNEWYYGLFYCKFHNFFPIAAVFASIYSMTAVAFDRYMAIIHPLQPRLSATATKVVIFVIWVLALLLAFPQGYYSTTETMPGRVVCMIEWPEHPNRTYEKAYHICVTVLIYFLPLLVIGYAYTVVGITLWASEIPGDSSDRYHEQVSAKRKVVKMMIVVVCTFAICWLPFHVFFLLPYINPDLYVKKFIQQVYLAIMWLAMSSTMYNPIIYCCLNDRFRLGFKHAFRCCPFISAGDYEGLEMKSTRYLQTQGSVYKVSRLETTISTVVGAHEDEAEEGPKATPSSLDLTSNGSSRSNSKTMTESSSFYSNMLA

For `C[C@@H](O[C@H]1OCCN(Cc2n[nH]c(=O)[nH]2)[C@H]1c1ccc(F)cc1)c1cc(C(F)(F)F)cc(C(F)(F)F)c1` [Aprepitant, aprepitant], the “inhibitory effect on CYP3A4 (reported)” value [1] is given as “dose-dependent inhibitory effect on CYP3A4”.
With `Cc1ccccc1-c1cc(N2CCC(CC(=O)O)CC2)ncc1N(C)C(=O)C(C)(C)c1cc(C(F)(F)F)cc(C(F)(F)F)c1` [Example 2, (5′-{[2-(3,5-Bistrifluoromethylphenyl)-2-methylpropionyl]methylamino}-4′-ortho-tolyl-3,4,5,6-tetrahydro-2H-[1,2]bipyridinyl-4-yl)acetic acid] the “Inhibition (foot-tapping inhibition rate)” value (“Inhibition” for short) [2] was 81%, the remaining activity at 0.1 µM [3] was 54% and the IC50 [4] was 0.00253 µM. For the same compound, the concentration at 4 h [5] was 167 nM and the IC50 [6, 7] was 13 µM.
With `Cc1cc(F)ccc1-c1cc(N2CCC(CC(=O)O)C(C)(C)C2)ncc1N(C)C(=O)C(C)(C)c1cc(C(F)(F)F)cc(C(F)(F)F)c1` (centres unmarked) [Example 3] the “Inhibition” value [2] was 100%, the remaining activity at 0.1 µM [3] was 13% and the IC50 [4] was 0.00461 µM. The concentration at 4 h [5] was 262 nM and the IC50 [6, 7] was 3.7 µM.
For `Cc1cc(F)ccc1-c1cc(N2CCC(CC(=O)O)C(C)C2)ncc1N(C)C(=O)C(C)(C)c1cc(C(F)(F)F)cc(C(F)(F)F)c1` (centres unmarked) [Example 4], the “Inhibition” value [2] was 100%, the remaining activity at 0.1 µM [3] was 16% and the IC50 [4] was 0.00354 µM. For the same compound, the concentration at 4 h [5] was 179 nM and the IC50 [6, 7] was 4.8 µM.
For `COC1CN(c2cc(-c3ccc(F)cc3C)c(N(C)C(=O)C(C)(C)c3cc(C(F)(F)F)cc(C(F)(F)F)c3)cn2)CCC1CC(=O)O` (centres unmarked) [Example 5, [5′-{[2-(3,5-Bistrifluoromethylphenyl)-2-methylpropionyl]methylamino}-4′-(4-fluoro-2-methylphenyl)-3-methoxyl-3,4,5,6-tetrahydro-2H-[1,2′]bipyridinyl-4-yl]acetic acid], the “Inhibition” value [2] was 97%, the remaining activity at 0.1 µM [3] was 49% and the IC50 [4] was 0.00329 µM. The concentration at 4 h [5] was 111 nM and the IC50 [6, 7] was 5.5 µM.
In the case of `Cc1cc(F)ccc1-c1cc(N2CCC(CC(=O)O)CC2)nc(C#N)c1N(C)C(=O)C(C)(C)c1cc(C(F)(F)F)cc(C(F)(F)F)c1` [Example 6], the “Inhibition” value [2] is reported as 100%, the remaining activity at 0.1 µM [3] is reported as 73% and the IC50 [4] is reported as 0.0026 µM. For the same compound, the concentration at 4 h [5] was 243 nM and the IC50 [6, 7] was 2.6 µM.
For `Cc1cc(F)ccc1-c1cc(N2CCC(C(C)(C)C(=O)O)CC2)ncc1N(C)C(=O)C(C)(C)c1cc(C(F)(F)F)cc(C(F)(F)F)c1` [Example 7, [5′-{[2-(3,5-Bistrifluoromethylphenyl)-2-methylpropionyl]methylamino}-4′-(4-fluoro-2-methylphenyl)-3,4,5,6-tetrahydro-2H-[1,2′]bipyridinyl-4-yl]-2-methylpropionic acid], the remaining activity at 0.1 µM [3] was 6%, the IC50 [4] was 0.00465 µM and the IC50 [6, 7] was 4.1 µM.
`Cc1cc(F)ccc1-c1cc(N2CCC(C)(CC(=O)O)CC2)ncc1N(C)C(=O)C(C)(C)c1cc(C(F)(F)F)cc(C(F)(F)F)c1` [Example 9] gave a remaining activity at 0.1 µM [3] of 6%, an IC50 [4] of 0.00283 µM and an IC50 [6, 7] of 6.3 µM.
With `Cc1cc(F)ccc1-c1cc(N2CCC(C)(CC(=O)O)CC2)nc(C#N)c1N(C)C(=O)C(C)(C)c1cc(C(F)(F)F)cc(C(F)(F)F)c1` [Example 10, [5′-{[2-(3,5-Bistrifluoromethylphenyl)-2-methylpropionyl]methylamino}-6′-cyano-4′-(4-fluoro-2-methylphenyl)-4-methyl-3,4,5,6-tetrahydro-2H-[1,2′]bipyridinyl-4-yl]acetic acid] the “Inhibition” value [2] was 100%, the IC50 [4] was 0.00332 µM and the concentration at 4 h [5] was 219 nM. For the same compound, the IC50 [6, 7] was 3.8 µM.
With `Cc1cc(F)ccc1-c1cc(N2CCC([C@H](C)C(=O)O)CC2)ncc1N(C)C(=O)C(C)(C)c1cc(C(F)(F)F)cc(C(F)(F)F)c1` [Example 11, (S)-2-[5′-{[2-(3,5-Bistrifluoromethylphenyl)-2-methylpropionyl]methylamino}-4′-(4-fluoro-2-methylphenyl)-3,4,5,6-tetrahydro-2H-[1,2′]bipyridinyl-4-yl]propionic acid] the remaining activity at 0.1 µM [3] was 7%, the IC50 [4] was 0.00132 µM and the IC50 [6] was 4.9 µM.
For `CC(=O)N1CCN([C@H]2CCN(C(=O)N(C)[C@H](C)c3cc(C(F)(F)F)cc(C(F)(F)F)c3)[C@@H](c3ccc(F)cc3C)C2)CC1` [casopitant], the “inhibitory effect on CYP3A4 (reported)” value [1] is listed as “inhibitory effect on CYP3A4”.
In the case of `Cc1ccccc1-c1cc(N2CCN(C)CC2)ncc1N(C)C(=O)C(C)(C)c1cc(C(F)(F)F)cc(C(F)(F)F)c1` [netupitant], the “inhibitory effect on CYP3A4 (reported)” value [1] is given as “inhibitory effect on CYP3A4”.
